pIC50: −log10 of the molar value. Where a name gives a salt, the structure may show the parent alone.
Target: T1, mGlyT-1b (Mus musculus, UniProt P28571)
T1 construct: host or cells: Flp-in-CHO
T1 sequence (P28571 1-651 isoform P28571-2): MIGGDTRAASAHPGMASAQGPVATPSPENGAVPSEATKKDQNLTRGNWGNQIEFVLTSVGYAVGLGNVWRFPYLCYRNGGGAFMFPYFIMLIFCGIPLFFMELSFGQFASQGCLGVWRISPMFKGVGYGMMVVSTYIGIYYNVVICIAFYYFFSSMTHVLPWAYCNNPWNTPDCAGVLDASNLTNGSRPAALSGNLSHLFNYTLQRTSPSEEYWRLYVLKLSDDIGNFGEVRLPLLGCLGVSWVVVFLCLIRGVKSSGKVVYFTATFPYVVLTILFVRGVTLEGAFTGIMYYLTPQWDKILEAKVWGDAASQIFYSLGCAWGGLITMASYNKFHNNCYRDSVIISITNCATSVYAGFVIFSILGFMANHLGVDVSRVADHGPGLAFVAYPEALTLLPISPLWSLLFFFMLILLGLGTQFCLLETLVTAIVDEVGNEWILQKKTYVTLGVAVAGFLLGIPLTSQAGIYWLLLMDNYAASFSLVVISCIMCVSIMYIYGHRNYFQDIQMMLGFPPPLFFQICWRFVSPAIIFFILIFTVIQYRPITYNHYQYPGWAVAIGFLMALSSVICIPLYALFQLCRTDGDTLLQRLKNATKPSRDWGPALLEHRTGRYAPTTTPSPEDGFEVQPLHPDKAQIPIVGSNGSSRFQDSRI
Experiment: Glycine uptake inhibition assay (mGlyT-1b)
Assay type: cell-based
Conditions: [3H]-glycine uptake, Flp-in-CHO cells stably transfected with mGlyT1b cDNA, 20 min preincubation at 22° C.
Experimental: Nutrient mixture F-12 (Gibco Life-technologies), fetal bovine serum (FBS) 5%, (Gibco life technologies), Penicillin/Streptomycin 1% (Gibco life technologies), Hygromycin 0.6 mg/ml (Gibco life technologies), Glutamine 1 mM Gibco life technologies)
150 mM NaCl, 10 mM Hepes-Tris, pH 7.4, 1 mM CaCl2, 2.5 mM KCl, 2.5 mM MgSO4, 10 mM (+) D-glucose.
Flp-in™-CHO (Invitrogen Cat n° R758-07) cells stably transfected with mGlyT1b cDNA.
Glycine Uptake Inhibition Assay (mGlyT-1b)
On day 1 mammalian cells, (Flp-in™-CHO), transfected with mGlyT-1b cDNA, were plated at the density of 40,000 cells/well in complete F-12 medium, without hygromycin in 96-well culture plates. On day 2, the medium was aspirated and the cells were washed twice with uptake buffer (UB). The cells were then incubated for 20 min at 22° C. with either (i) no potential competitor, (ii) 10 mM non-radioactive glycine, (iii) a concentration of a potential inhibitor. A range of concentrations of the potential inhibitor was used to generate data for calculating the concentration of inhibitor resulting in 50% of the effect (e.g. IC50, the concentration of the competitor inhibiting glycine uptake of 50%). A solution was then immediately added containing [^3H]-glycine 60 nM (11-16 Ci/mmol) and 25 μM non-radioactive glycine. The plates were incubated with gentle shaking and the reaction was stopped by aspiration of the mixture and washing (three times) with ice-cold UB. The cells were lysed with scintillation liquid, shaken 3 hours and the radioactivity in the cells was counted using a scintillation counter.

SMILES	pIC50
CCc1cc(C(F)(F)F)ccc1C(=O)N[C@@]1(c2ccccc2)C[C@H](C)CN(C)C1 (racemic) [Example 124, N-((3R,5S) or (3S,5R)-1,5-Dimethyl-3-phenyl-piperidin-3-yl)-2-ethyl-4-trifluoromethyl-benzamide]	7.90
CCc1cc(C(F)(F)F)ccc1C(=O)N[C@@]1(c2ccccc2)C[C@H](OC)CN(C)C1 (racemic) [Example 125, 2-Ethyl-N-((3R,5S) or (3S,5R)-5-methoxy-1-methyl-3-phenyl-piperidin-3-yl)-4-trifluoromethyl-benzamide]	6.75
CO[C@@H]1CN(C)C[C@](NC(=O)c2ccc(C(F)(F)F)cc2C2CC2)(c2ccccc2)C1 (racemic) [Example 126, 2-Cyclopropyl-N-((3R,5S) or (3S,5R)-5-methoxy-1-methyl-3-phenyl-piperidin-3-yl)-4-trifluoromethyl-benzamide]	7.51
COc1cc(C(F)(F)F)cc(OC)c1C(=O)N[C@@]1(c2ccccc2)CCCN(C)C1 (racemic) [Example 128, 2,6-Dimethoxy-N-(R or (S)-1-methyl-3-phenyl-piperidin-3-yl)-4-trifluoromethyl-benzamide]	6.90
COc1cc(C(F)(F)F)cc(SC)c1C(=O)NC1(c2ccccc2F)CCCN(C)C1 (single isomer, unassigned) [Example 111, N-[(R or S)-3-(2-Fluoro-phenyl)-1-methyl-piperidin-3-yl]-2-methoxy-6-methylsulfanyl-4-trifluoromethyl-benzamide]	7.24
COc1cc(C(F)(F)F)cc(SC)c1C(=O)NC1(c2cc(F)ccc2F)CCCN(C)C1 (single isomer, unassigned) [Example 113, N-[(R or S)-3-(2,5-Difluoro-phenyl)-1-methyl-piperidin-3-yl]-2-methoxy-6-methylsulfanyl-4-trifluoromethyl-benzamide]	7.25
CCc1cc(C(F)(F)F)ccc1C(=O)NC1(c2ccccc2)CCCN(C)C1 (single isomer, unassigned) [Example 115, 2-Ethyl-N-((R or S)-1-methyl-3-phenyl-piperidin-3-yl)-4-trifluoromethyl-benzamide hydrochloride]	7.59
CN1CCC[C@](NC(=O)c2ccc(C(F)(F)F)cc2C2CC2)(c2ccccc2)C1 (stereo in doubt) [Example 56, 2-Cyclopropyl-N-((S)-1-methyl-3-phenyl-piperidin-3-yl)-4-trifluoromethyl-benzamide hydrochloride]	6.79
CN1CCC[C@@](NC(=O)c2ccc(C(F)(F)F)cc2C2CC2)(c2ccccc2)C1 (stereo in doubt) [Example 57, 2-Cyclopropyl-N-((R)-1-methyl-3-phenyl-piperidin-3-yl)-4-trifluoromethyl-benzamide hydrochloride]	7.64

Other lines, results leading:

pIC50	SMILES
8.00	Cl.[2H]C([2H])([2H])N1CCC[C@@](NC(=O)c2c(OC)cc(C(F)(F)F)cc2SC)(c2ccccc2)C1 (single isomer, unassigned) [Example 63, [2H-methyl]-2-Methoxy-N—(R) or (S)-1-methyl-3-phenyl-piperidin-3-yl)-6-methylsulfanyl-4-trifluoromethyl-benzamide hydrochloride]
7.45	COc1cc(C(F)(F)F)cc(SC)c1C(=O)NC1(c2ccccc2)CN(C)CC(C)(C)C1 (single isomer, unassigned) [Example 116, 2-Methoxy-6-methylsulfanyl-4-trifluoromethyl-N-((S or R)-1,5,5-trimethyl-3-phenyl-piperidin-3-yl)-benzamide]
7.49	COc1cc(C(F)(F)F)cc(SC)c1C(=O)N[C@]1(c2ccccc2)CC[C@H](C)N(C)C1 (single isomer, unassigned) [Example 117, N-((3S,6S) or (3R,6R)-1,6-Dimethyl-3-phenyl-piperidin-3-yl)-2-methoxy-6-methylsulfanyl-4-trifluoromethyl-benzamide]
7.86	COc1cc(C(F)(F)F)cc(SC)c1C(=O)N[C@@]1(c2ccccc2)CC[C@@H](C)N(C)C1 (single isomer, unassigned) [Example 119, N-((3R,6R) or (3S,6S)-1,6-Dimethyl-3-phenyl-piperidin-3-yl)-2-methoxy-6-methylsulfanyl-4-trifluoromethyl-benzamide]
7.90	COc1cc(C(F)(F)F)cc(SC)c1C(=O)N[C@@]1(c2ccccc2)CC[C@H](C)N(C)C1 (single isomer, unassigned) [Example 120, N-((3R,6S) or (3S,6R)-1,6-Dimethyl-3-phenyl-piperidin-3-yl)-2-methoxy-6-methylsulfanyl-4-trifluoromethyl-benzamide]
6.74	COc1cc(C(F)(F)F)cc(SC)c1C(=O)N[C@]1(c2ccccc2)CCCN(C)C1 (stereo in doubt) [Example 37, 2-Methoxy-N-((S)-1-methyl-3-phenyl-piperidin-3-yl)-6-methylsulfanyl-4-trifluoromethyl-benzamide hydrochloride]
8.00	COc1cc(C(F)(F)F)cc(SC)c1C(=O)N[C@@]1(c2ccccc2)CCCN(C)C1 (stereo in doubt) [Example 38, 2-Methoxy-N-((R)-1-methyl-3-phenyl-piperidin-3-yl)-6-methylsulfanyl-4-trifluoromethyl-benzamide hydrochloride]
7.27	COc1cc(C(F)(F)F)cc(SC)c1C(=O)N[C@@]1(c2ccccc2)C[C@H](OC)CN(C)C1 (stereo in doubt) [Example 75, 2-Methoxy-N-((3RS,5SR)-5-methoxy-1-methyl-3-phenyl-piperidin-3-yl)-6-methylsulfanyl-4-trifluoromethyl-benzamide]
7.39	COc1cc(C(F)(F)F)cc(SC)c1C(=O)N[C@@]1(c2ccccc2)C[C@H](OC)CN(C)C1 (stereo in doubt) [Example 108, 2-Methoxy-N-((3R,5S) or (3S,5R)-5-methoxy-1-methyl-3-phenyl-piperidin-3-yl)-6-methylsulfanyl-4-trifluoromethyl-benzamide]
6.82	COc1cc(C(F)(F)F)cc(SC)c1C(=O)N[C@]1(c2ccccc2)C[C@@H](OC)CN(C)C1 (stereo in doubt) [Example 109, 2-Methoxy-N-((3S,5R) or (3R,5S)-5-methoxy-1-methyl-3-phenyl-piperidin-3-yl)-6-methylsulfanyl-4-trifluoromethyl-benzamide]
